Laboratory results taken from US8435756B2, “Anionic acid-labile surfactants and methods of use” (Protea Biosciences, Inc., priority 2008, dated 2013).

Columns and labels:
[1] = biological target: T1, ovalbumin (Gallus gallus, UniProt P01012); assay: Protein score from in-solution tryptic digestion of ovalbumin (MALDI-TOF MS/MS, Mascot); settings: tryptic digestion of 250 μmol ovalbumin; 0.05% AALS-6, other surfactants per manufacturer's protocols; FIG. 3
T1 sequence (P01012 1-386): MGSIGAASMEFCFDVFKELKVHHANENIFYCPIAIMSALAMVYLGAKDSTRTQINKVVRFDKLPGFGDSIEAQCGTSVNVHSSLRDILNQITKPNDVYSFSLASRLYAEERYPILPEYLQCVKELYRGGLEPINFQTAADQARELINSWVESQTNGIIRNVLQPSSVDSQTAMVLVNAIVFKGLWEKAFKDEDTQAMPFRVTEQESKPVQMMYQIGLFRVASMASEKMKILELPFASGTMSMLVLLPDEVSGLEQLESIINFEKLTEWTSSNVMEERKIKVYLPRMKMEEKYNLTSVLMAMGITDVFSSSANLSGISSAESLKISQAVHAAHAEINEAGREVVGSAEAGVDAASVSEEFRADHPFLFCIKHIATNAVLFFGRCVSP
Procedure: The protein scores from in-solution digestion of ovalbumin in buffers containing an embodiment of an anionic acid-labile surfactant (“AALS-6”) and three commercially available acid labile surfactants are illustrated in FIG. 3. A tryptic digestion of […] ovalbumin was performed using 0.05% AALS-6 in digestion buffer. For the other surfactants, digestion was performed according to the manufacturer's protocols. Sample clean-up and MALDI spotting was performed using C18 reversed phase tips. MALDI-TOF MS and MS/MS spectra were acquired using an ABI 4800 mass spectrometer in the reflector mode. Protein identification was accomplished through database searching MS/MS spectra using Mascot search engine.
The ovalbumin control digestion score is 347. In general, the higher protein score indicates an increase in the quality and/or completeness of the digestion because more peptides are available for analysis by the mass spectrometer, and/or the quality of the digested sample delivered to the mass spectrometer is increased. […] The higher protein score of AALS-6 may also be due to its degradation kinetics. For example, once the digestion experiment is complete, the degradation of the surfactant reduces contamination of the signal by detergent molecules and by-products as well as reduces the ion suppression effects commonly seen in mass spectrometry analysis of peptides and proteins.

[2] = biological target: BSA (Bos taurus, UniProt P02769); assay: Protein score from in-solution tryptic digestion of BSA (MALDI-TOF, peptide mass fingerprinting); settings: tryptic digestion of 250 pmol BSA, 0.05% AALS-6 in digestion buffer; FIG. 2
Chain of BSA (P02769 25-607): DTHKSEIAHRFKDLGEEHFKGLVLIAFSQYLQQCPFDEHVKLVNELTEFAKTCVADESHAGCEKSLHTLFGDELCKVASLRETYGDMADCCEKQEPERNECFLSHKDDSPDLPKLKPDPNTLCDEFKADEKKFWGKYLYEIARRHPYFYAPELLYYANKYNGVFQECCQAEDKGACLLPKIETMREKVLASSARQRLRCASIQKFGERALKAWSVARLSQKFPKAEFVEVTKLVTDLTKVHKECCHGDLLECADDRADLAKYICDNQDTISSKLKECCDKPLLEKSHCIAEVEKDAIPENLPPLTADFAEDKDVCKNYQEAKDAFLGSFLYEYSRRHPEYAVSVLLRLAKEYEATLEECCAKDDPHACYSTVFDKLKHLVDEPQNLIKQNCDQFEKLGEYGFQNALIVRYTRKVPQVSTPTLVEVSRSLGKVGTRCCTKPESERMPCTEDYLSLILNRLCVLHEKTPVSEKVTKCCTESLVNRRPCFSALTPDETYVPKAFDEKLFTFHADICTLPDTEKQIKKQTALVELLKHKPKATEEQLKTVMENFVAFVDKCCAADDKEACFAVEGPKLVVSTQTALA
Procedure: Protein scores from in-solution digestion of BSA in buffers containing an embodiment of an anionic acid-labile surfactant (“AALS-6”) and three commercially available acid labile surfactants are illustrated in FIG. 2. A tryptic digestion of 250 pmol BSA is performed using 0.05% AALS-6 in digestion buffer. For the other surfactants, digestion is performed according to the manufacturer's protocols. Sample clean-up and MALDI spotting is performed using C18 reversed phase tips. MALDI-TOF spectra are acquired using an ABI 4800 mass spectrometer in the reflector mode. Protein identification is accomplished through peptide mass fingerprinting (PMF) of the acquired MS spectra.
Algorithms that compare mass spectrometric data to database for protein identification compare the experimental tandem mass spectra against theoretical mass spectra from all peptides and proteins present in the databases. As an output for the database correlation analysis, a protein identification score is generated for each potential protein match. Protein matches are required to have a minimum protein score to be considered a potential positive and significant protein identification. The higher the score, the more likely that the protein identification is real and not a result of random events that match the database. […]

[3] = Critical micellular concentration; assay type: physicochemical

| SMILES | average protein score [1] | average protein score [2] | critical micellular concentration [3] |
| --- | --- | --- | --- |
| CCCCCCCCCCCC1(C)OCC(COCCCS(=O)(=O)[O-])O1.[Na+] (centres unmarked) [Rapigest] | 341 |  |  |
| CCCCCCOC(C)(COS(=O)(=O)[O-])OCCCCCC.[Na+] [AALS-6, sodium 2,2-bis(hexyloxy)propyl sulfate] | 487 | 93 | 7.7 mM |
| CCCCCCCCCCC(OC(=O)NCCCS(=O)(=O)[O-])c1ccco1.[Na+] (centres unmarked) [Proteamax] | 329 |  |  |
